Here are results for 20 compounds from patent publication US20050065140A1, “Serotonine reuptake inhibitor” (priority 2001, published 2005).

In data set [1] the target is T1, [^3H]paroxetine binding (serotonin reuptake), cerebral cortex membrane preparation (Rattus norvegicus, UniProt P31652).
T1 construct: 790 μl of the cerebral cortex membrane preparation (150 μg/tube in terms of protein); from tissue; host or cells: rat cerebral cortex membrane preparation
Put plainly: Screening test using [^3H]paroxetine binding (Test Example 1). The conditions noted are these: [^3H]paroxetine 0.15 nM, test concentration not given. The protocol: Screening Test Using [^3H]Paroxetine Binding
The membrane preparation was prepared according to the method^1a) of D'amato et al. In detail, after a male rat was decapitated, the whole brain was immediately removed and the cerebral cortex was dissected therefrom under ice-cooling. A buffer solution (50 mM Tris-HCl (pH=7.4), 120 mM NaCl, 5 mM KCl) was added to the cerebral cortex in an amount of 25 times the wet weight of the cerebral cortex, followed by homogenization in an ice bath by the use of a Teflon-glass homogenizer. The homogenate was centrifuged at 4° C. and 45,000×g for 10 minutes, and the resulting precipitate was dispersed in an ice-cooled buffer solution (50 mM Tris-HCl (pH=7.4), 120 mM NaCl, 5 mM KCl) by the use of Hiscotron™, followed by centrifugation at 4° C. and 45,000×g for 10 minutes. The resulting precipitate was re-suspended and the washing procedure was repeated. The membrane preparation thus obtained was suspended in the same buffer solution as described above, and then subjected to cryopreservation at −80° C.
[^3H]paroxetine binding was measured according to the method^1b) of Habert E et al. In detail, 200 μl of a dilution (final concentration: 0.15 nM) of [^3H]paroxetine with 50 mM Tris-HCl (pH=7.4) buffer containing 120 mM NaCl and 5 mM KCl, 790 μl of the cerebral cortex membrane preparation (150 μg/tube in terms of protein), 10 μl of a solution of a test drug in dimethyl sulfoxide and 1 ml of the above-mentioned buffer solution were mixed to prepare a liquid having a total volume of 2 ml. After this liquid was allowed to react at room temperature for 60 minutes, it was immediately filtered by suction at a low pressure through glass fiber filter. The glass fiber filter was washed 4 times with 4 ml of the same buffer solution as above and then transferred to a glass vial containing 4 ml of ACS-II (Amersham), and the radioactivity remaining on the filter was measured with a liquid scintillation counter.
Non-specific binding of [^3H]paroxetine was defined as the amount of [^3H]paroxetine bound in the presence of 100 μM 5-HT.
(§1) Rate of binding inhibition was calculated by the following equation:
Rate of binding inhibition (%)=100−100×{[amount of [^3H]paroxetine bound in the presence of test substance]−[amount of [^3H]paroxetine bound in the presence of 100 μM 5-HT]/[amount of [^3H]paroxetine bound in the absence of test substance]−[amount of [^3H]paroxetine bound in the presence of 100 μM 5-HT]}

Data set [2] addresses T2, serotonin 1A receptors ([^3H]8-OH-DPAT binding, hippocampus membrane preparation) (Rattus norvegicus, UniProt P19327).
T2 construct: 146 μl of the hippocampus membrane preparation (80 μg/tube in terms of protein); from tissue; host or cells: rat hippocampus membrane preparation
T2 sequence (P19327 1-422): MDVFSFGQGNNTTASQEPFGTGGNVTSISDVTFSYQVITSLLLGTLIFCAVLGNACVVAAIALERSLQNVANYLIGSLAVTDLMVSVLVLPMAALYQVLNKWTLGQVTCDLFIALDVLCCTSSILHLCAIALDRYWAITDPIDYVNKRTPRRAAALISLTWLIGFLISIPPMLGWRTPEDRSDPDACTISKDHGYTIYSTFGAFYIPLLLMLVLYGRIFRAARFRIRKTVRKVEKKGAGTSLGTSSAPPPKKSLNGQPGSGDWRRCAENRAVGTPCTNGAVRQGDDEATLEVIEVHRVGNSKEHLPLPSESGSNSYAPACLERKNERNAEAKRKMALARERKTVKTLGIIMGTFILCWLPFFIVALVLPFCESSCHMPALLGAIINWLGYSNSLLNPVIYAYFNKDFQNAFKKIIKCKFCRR
Put plainly: [^3H]8-OH-DPAT binding test (Test Example 2). The note with it: [^3H]8-OH-DPAT 2 nM, test concentration not given. The protocol:
[^3H]8-OH-DPAT Binding Test
The test was carried out according to the method^2 of Hall M. D. et al. After about one week of pre-breeding, a male rat was decapitated and the brain was immediately removed. The hippocampus was dissected from the brain on ice, and 50 mM Tris-HCl (pH=7.4) was added to the hippocampus in an amount of 40 times the wet weight of the hippocampus, followed by homogenization (3 min, 1 stroke/min) in an ice bath by the use of a Teflon-glass homogenizer. Then, the homogenate was centrifuged (4° C.) at 40,000×g for 10 minutes. The resulting precipitate was dispersed in an ice-cooled buffer solution (50 mM Tris-HCl (pH=7.4)) by the use of Hiscotron™, followed by centrifugation (4° C.) at 40,000×g for 10 minutes. Moreover, the resulting precipitate was re-suspended and the washing procedure was repeated once. The precipitate thus obtained was dispersed in an ice-cooled buffer solution (50 mM Tris-HCl (pH=7.4)) by the use of Hiscotron™, and the resulting dispersion was incubated at 37° C. for 1 hour and then centrifuged (4° C.) at 40,000×g for 10 minutes. Furthermore, the resulting precipitate was re-suspended and the washing procedure was repeated once. The membrane preparation thus obtained was suspended in the same buffer solution as described above, and then subjected to cryopreservation at −80° C.
Measurement was carried out by using a liquid for reaction (total volume: 200 μl) obtained by adding 50 μl of [^3H]8-OH-DPAT (final concentration: 2 nM), 4 μl of a solution of a test drug and 146 μl of the hippocampus membrane preparation (80 μg/tube in terms of protein) to a buffer solution containing 50 mM Tris-HCl (pH=7.4) and 4 mM CaCl2. After the liquid for reaction was allowed to react at room temperature for 30 minutes, it was immediately filtered by suction at a low pressure through glass fiber filter. The glass fiber filter was washed twice with 250 μl of a buffer solution and then added to a glass vial containing 4 ml of ACS-II (Amersham), and the radioactivity bound to receptors and remaining on the filter was measured with a liquid scintillation counter. Non-specific binding of [^3H]8-OH-DPAT was defined as the amount of [^3H]8-OH-DPAT bound in the presence of 1 μM 8-OH-DPAT.
as §1
Rate of binding inhibition (%)=100−100×{[amount of [^3H]8-OH-DPAT bound in the presence of test substance]−[amount of [^3H]8-OH-DPAT bound in the presence of 1 μM 8-OH-DPAT]/[amount of [^3H]8-OH-DPAT bound in the absence of test substance]−[amount of [^3H]8-OH-DPAT bound in the presence of 1 μM 8-OH-DPAT]}

T1 sequence (P31652 whole entry): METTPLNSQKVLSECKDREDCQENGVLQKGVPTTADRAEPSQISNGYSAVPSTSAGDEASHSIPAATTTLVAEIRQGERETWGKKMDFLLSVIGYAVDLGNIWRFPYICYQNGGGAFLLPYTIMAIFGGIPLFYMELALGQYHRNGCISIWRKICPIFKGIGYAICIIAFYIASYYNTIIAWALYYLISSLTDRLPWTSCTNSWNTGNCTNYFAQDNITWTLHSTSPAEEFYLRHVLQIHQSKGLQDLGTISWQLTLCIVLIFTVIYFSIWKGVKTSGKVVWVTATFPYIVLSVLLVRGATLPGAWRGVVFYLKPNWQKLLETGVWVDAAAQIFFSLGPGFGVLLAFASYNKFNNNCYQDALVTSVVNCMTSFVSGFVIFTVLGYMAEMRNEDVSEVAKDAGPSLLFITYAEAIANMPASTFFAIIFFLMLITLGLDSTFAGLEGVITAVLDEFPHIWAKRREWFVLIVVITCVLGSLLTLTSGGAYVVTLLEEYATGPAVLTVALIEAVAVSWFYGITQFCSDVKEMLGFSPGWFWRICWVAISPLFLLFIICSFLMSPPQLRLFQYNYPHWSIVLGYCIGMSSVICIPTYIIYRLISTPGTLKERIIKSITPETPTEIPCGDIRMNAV

One may read the melting point as the temperature, or range, at which the solid turns liquid. `COc1ccc(Br)c(CC2CCN(CCC[C@H]3CC[C@@H](N)CC3)CC2)c1.Cl.Cl` gave a melting point of 238 °C.

Consider `CCN[C@H]1CC[C@H](CCN2CCC(Cc3cc(OC(C)C)ccc3Br)CC2)CC1.Cl.Cl`, for which the melting point stood at 290 °C.

On to `CCN[C@H]1CC[C@@H](CCCN2CCC(Cc3cc(OC)ccc3Br)CC2)CC1.Cl.Cl`, for which the melting point is 234 °C.

With `CO[C@H]1CC[C@@H](CCCN2CCC(Cc3cc(OC(C)C)ccc3Br)CC2)CC1.Cl`, the melting point was 134 °C.

`COCC(=O)N[C@H]1CC[C@H](CCN2CCC(Cc3cc(OC)ccc3Br)CC2)CC1.Cl` had a melting point of 132 °C.

`CCN(CC)[C@H]1CC[C@H](CCN2CCC(Cc3cc(OC)ccc3Br)CC2)CC1.Cl.Cl` displayed a melting point of 242 °C.

`CCN(CC)[C@H]1CC[C@H](CCN2CCC(Cc3cc(OC(C)C)ccc3Br)CC2)CC1.Cl.Cl` showed a melting point of 253 °C.

Consider `CCN(CC(F)(F)F)[C@H]1CC[C@H](CCN2CCC(Cc3cc(OC)ccc3Br)CC2)CC1.Cl.Cl`, for which the melting point amounted to 209 °C.

`CCN(CCO)[C@H]1CC[C@H](CCN2CCC(Cc3cc(OC)ccc3Br)CC2)CC1.Cl.Cl` came in with a melting point of 259 °C.

In the case of `COc1ccc(Br)c(CC2CCN(CCC3(CCO)CCCC3)CC2)c1.Cl`, the melting point stood at 184 °C.

`COc1ccc(Br)c(CC2CCN(CC[C@H]3CC[C@@H](CO)CC3)CC2)c1.Cl` came in with a melting point of 209 °C.

`CCOc1ccc(Br)c(CC2CCN(CC3CCc4ccccc4N3)CC2)c1.Cl.Cl` (stereo not drawn) had a melting point of 228 °C.

For the compound `Cl.Cl.Fc1ccc(Br)c(CC2CCN(CC3CCc4ccccc4N3)CC2)c1` (stereo not drawn), the melting point amounted to 245 °C.

Take `COc1ccc(Br)c(CC2CCN(CCC3CCNCC3)CC2)c1.Cl.Cl` [Example 1, 4-(2-Bromo-5-methoxybenzyl)-1-(2-(4-piperidinyl)ethyl)piperidine Dihydrochloride]: the “Rate of inhibition of [^3H]paroxetine binding (%)” value in data set [1] came to 81%. The “Rate of inhibition of [^3H]8-OH-DPAT binding (%)” value in data set [2] came out at 47%.

Consider `CCNC(=O)N1CCC(CCN2CCC(Cc3cc(OC)ccc3Br)CC2)CC1.Cl` [Example 32], for which the “Rate of inhibition of [^3H]paroxetine binding (%)” value in data set [1] is 97%. For the same compound, the “Rate of inhibition of [^3H]8-OH-DPAT binding (%)” value in data set [2] was found to be 73%.

Turning to `CCN[C@H]1CC[C@@H](CCN2CCC(Cc3cc(OC(C)C)ccc3Br)CC2)CC1.Cl.Cl` [Example 41, cis-N-(4-(2-(4-(2-bromo-5-isopropoxybenzyl)-piperidin-1-yl)ethyl)cyclohexyl)-N-ethylamine Dihydrochloride], the melting point worked out at 247 °C. Also, the “Rate of inhibition of [^3H]paroxetine binding (%)” value in data set [1] was 78%. The “Rate of inhibition of [^3H]8-OH-DPAT binding (%)” value in data set [2] came out at 86%.

As to `CCN(C(C)=O)[C@H]1CC[C@H](CCN2CCC(Cc3cc(OC(C)C)ccc3Br)CC2)CC1.Cl` [Example 52, trans-N-(4-(2-(4-(2-bromo-5-isopropoxy-benzyl)piperidin-1-yl)ethyl)cyclohexyl)-N-ethylacetamide Hydrochloride], the “Rate of inhibition of [^3H]paroxetine binding (%)” value in data set [1] is listed as 90%. For the same compound, the “Rate of inhibition of [^3H]8-OH-DPAT binding (%)” value in data set [2] amounted to 60%.

With `COc1ccc(Br)c(CC2CCN(CCC3(CCO)CCCCC3)CC2)c1.Cl` [Example 60, 2-(1-(2-(4-(2-Bromo-5-methoxybenzyl)-piperidin-1-yl)ethyl)cyclohexyl)ethanol Hydrochloride], the “Rate of inhibition of [^3H]paroxetine binding (%)” value in data set [1] amounted to 91%. In data set [2], the “Rate of inhibition of [^3H]8-OH-DPAT binding (%)” value is listed as 98%.

`COc1ccc(Br)c(CC2CCN(CC[C@H]3CC[C@@H](CCO)CC3)CC2)c1.Cl` [Example 63] gave a melting point of 172 °C.

For the compound `COc1ccc(N2CC(CN3CCC(Cc4cc(OC)ccc4Br)CC3)OC2=O)cc1.Cl` (stereo not drawn) [Example 72, 5-(4-(2-Bromo-5-methoxybenzyl)piperidin-1-yl)methyl-3-(4-methoxyphenyl)oxazolidin-2-one hydrochloride], the “Rate of inhibition of [^3H]paroxetine binding (%)” value in data set [1] is on record as 99%. The “Rate of inhibition of [^3H]8-OH-DPAT binding (%)” value in data set [2] worked out at 97%.
